Test system: Male CD-1 mice
Test: mouse forced swim test, immobility time 24 h after treatment
Assay type: in vivo
Settings: for Holm-Šídák post-hoc comparison, group compared vehicle (p, immobility time) / minimum effective dose to reduce immobility time in the forced swim test / doses at which immobility time in the forced swim test was reduced (effective doses): 24 h after treatment; for minimum effective dose to reduce immobility time in the forced swim test / shape of dose response in the forced swim test / doses at which immobility time in the forced swim test was reduced (effective doses): male mice, i.p.; for shape of dose response in the forced swim test: tested range up to 100 mg/kg; for doses at which immobility time in the forced swim test was reduced (effective doses): relative to vehicle
Method: Animals: Male CD-1 mice (Charles Rivers Laboratories; Raleigh, NC, USA), 8-11 weeks old at the time of testing, were habituated to the University of Maryland (Baltimore, MD, USA) animal facility for at least one week prior to testing. Mice were group housed in cages of 4-5 per cage with a constant 12-hour light cycle (lights on/off at 07:00/19:00). Food and water were available ad libitum. All experiments were performed during the light phase. All studies were approved by the University of Maryland School of Medicine Animal Care and Use Committee and conducted in accordance with the National Institutes of Health Guide for the Care and Use of Laboratory Animals.
Drugs: (2R,6R)-HNK hydrochloride, (2S,6S)-HNK hydrochloride, (2R,6S)-HNK, and (2S,6R)-HNK were synthesized and characterized (molecular structures were confirmed via ^1H and ^13C NMR, the absolute and relative stereochemistry was assigned by x-ray crystallography, and the purity was determined via LC/MS) at the National Center for Advancing Translation Sciences (National Institutes of Health, Rockville, MD, USA). The synthesis and characterization of (2R,6R)-HNK hydrochloride, (2S,6S)-HNK hydrochloride, (2R,6S)-HNK, and (2S,6R)-HNK were performed as previously described in Morris et al., 2017, Org. Lett. 19:4572-4575, which is incorporated by reference herein in its entirety. (5R)-methyl-(2R,6R)-HNK was obtained from Organix Inc. (Woburn, MA, USA). (5R)-methyl-(2R,6R)-HNK can be synthesized according to the method described in Example 1. All compounds were dissolved in 20% (w/v) cyclodextrin (Sigma Aldrich, USA) in saline and administered intraperitoneally (i.p.) in a volume of 7.5 ml/kg.
Forced swim test: Compounds were tested in separate cohorts of male mice (n=10-18/group; only male mice were tested to control for sex-dependent differences in pharmacokinetics and brain levels) and all injections were performed by a experimenter. (2R,6R)-HNK, (2S,6S)-HNK, (2R,6S)-HNK, (2S,6R)-HNK were administered at the doses of 1, 3, 10, 30, and 100 mg/kg. (5R)-methyl-(2R,6R)-HNK was administered at the doses of 0.3, 1, 3, and 10 mg/kg. (2R,6S)-HNK and (2S,6R)-HNK were dosed as a free base whereas (2R,6R)-HNK and (2S,6S)-HNK, and (5R)-methyl-(2R,6R)-HNK were dosed as a hydrochloride salt. Vehicle and (2R,6R)-HNK (30 mg/kg) were included as controls in each cohort. Twenty-four h after treatment, mice were tested in the forced swim test, according to previously described methods. Injections were performed by a experimenter. Briefly, mice were placed into a clear Plexiglass cylinder (20 cm height×15 cm diameter) filled to a depth of 15 cm with water (23±1° C.) and subjected to a 6-min swim session. Swim sessions were recorded using a digital video camera. The time spent immobile (defined as passive floating with no movements other than those necessary to keep the head above water) was scored during the final 4 min of the session. Sessions were scored by a trained experimenter blind to the treatment groups.
Statistical analysis: All experiments and analyses were performed in a blinded and randomized manner. All injections were performed by a experimenter. Statistical analyses were performed using GraphPad Prism software (v8; GraphPad Software, Inc.). All statistical tests were two-tailed, and significance was assigned at p<0.05. Differences in immobility time were analyzed via one-way ANOVA followed by Holm-Šídák post-hoc comparison (with all groups compared to saline control group) when significance was reached. Significant results are indicated with asterisks in the figures (*p<0.05, **p<0.01, ***p<0.001). Data are presented as the mean±standard error of the mean (SEM).

Compound | Holm-Šídák post-hoc comparison, group compared vehicle (p, immobility time) (1 mg/kg i.p.) | Holm-Šídák post-hoc comparison, group compared vehicle (p, immobility time) (3 mg/kg i.p.) | Holm-Šídák post-hoc comparison, group compared vehicle (p, immobility time) (10 mg/kg i.p.) | Holm-Šídák post-hoc comparison, group compared vehicle (p, immobility time) (100 mg/kg i.p.) | minimum effective dose to reduce immobility time in the forced swim test | shape of dose response in the forced swim test | Holm-Šídák post-hoc comparison, group compared vehicle (p, immobility time) (30 mg/kg i.p.) | fold lower doses than (2R,6R)-HNK for antidepressant-relevant behavioral effects (forced swim test) | doses at which immobility time in the forced swim test was reduced (effective doses) | Holm-Šídák post-hoc comparison, group compared vehicle (p, immobility time) (0.3 mg/kg i.p.) | Holm-Šídák post-hoc comparison, group compared vehicle (p, immobility time) (3 mg/kg i.p., hydrochloride) | Holm-Šídák post-hoc comparison, group compared vehicle (p, immobility time) (3 mg/kg i.p., listed as (5R)-Me-(2R,6R)-HNK, hydrochloride)
N[C@@]1(c2ccccc2Cl)CCC[C@@H](O)C1=O [(2R,6R)-HNK, (2R,6R)-hydroxynorketamine] | p = 0.2332 | p = 0.2631 | p = 0.0428 | p = 0.0135 | 10 mg/kg | did not demonstrate U-shaped dose responses | – | – | – | – | – | –
N[C@@]1(c2ccccc2Cl)CCC[C@H](O)C1=O [(2R,6S)-HNK] | p = 0.0457 | p = 0.0261 | p = 0.0261 | p = 0.4950 | 1 mg/kg | U-shaped dose response curves | p = 0.4950 | 10 fold | 1 mg/kg | – | – | –
N[C@]1(c2ccccc2Cl)CCC[C@@H](O)C1=O [(2S,6R)-HNK] | p = 0.8466 | p = 0.0404 | p = 0.0404 | p = 0.8466 | 3 mg/kg | U-shaped dose response curves | p = 0.8466 | – | – | – | – | –
N[C@]1(c2ccccc2Cl)CCC[C@H](O)C1=O [(2S,6S)-HNK, (2S,6S)-hydroxynorketamine] | p = 0.9176 | p = 0.8804 | p = 0.9176 | p = 0.0003 | 30 mg/kg | did not demonstrate U-shaped dose responses | p = 0.0013 | – | – | – | – | –
C[C@@H]1CC[C@@](N)(c2ccccc2Cl)C(=O)[C@@H]1O.Cl [(5R)-methyl-(2R,6R)-HNK, (2R,5R,6R)-2-amino-2-(2-chlorophenyl)-6-hydroxy-5-methylcyclohexan-1-one hydrochloride] | p = 0.0257 | – | p = 0.0026 | – | 1 mg/kg | – | – | – | 1 to 10 mg/kg | p = 0.8074 | 0.06 | p = 0.0671

Source: US20230331655A1, “HYDROXYN[…] AND METHODS OF USE THEREOF” (UNIVERSITY OF MARYLAND, BALTIMORE, priority 2020, published 2023)
